Data: patent publication US5747253A, “Combinatorial oligomer immunoabsorbant screening assay for transcription factors and other biomolecule binding” (Isis Pharmaceuticals, Inc., priority 1995, dated 1998)

Tests used:
gag-pol stem loop = assay: Gel shift analysis of RNA oligonucleotide sets binding to HIV gag-pol stem loop (triple strand); conditions: 100 mM NaCl, 25 mM TRIS acetate pH5, 2 mM MgCl2, 1 mM spermidine
Description: Binding to double stranded DNA or RNA is possible by formation of a three stranded complex with the incoming third strand binding in the major groove of the duplex RNA or DNA. The molecular nature of the interaction between the oligomer and target need not be known in order to practice the technique. Thus, it is possible that novel interactions between oligomers and DNA or RNA will be responsible for binding. One of the limitations in the design of triple strand interactions is the need to have a long stretch of homopurines as a target. The 3' (right) side of the gag-pol stem loop is homopurine except for a pair of cytosines near the bottom of the stem. To determine the best oligonucleotide to bind to the gag-pol stem loop, a group of RNA oligonucleotide sets was designed to bind to the purine-rich strand of the gag-pol stem-loop by Hoogstein base pairing and prepared in accordance with Examples 2 and 6. Binding to the gag-pol stemloop was measured by gel shift analysis as previously described in Example 8 with the following modifications: the radiolabeled gag-pol RNA was incubated with the oligonucleotide in 100 mM NaCl, 25 mM TRIS acetate pH5, 2 mM Mg Cl2, 1 mM spermidine. The gel was a 15% acrylamide with 50 mM NaCl 2 mM MgCl2 added to the running buffer.

c-rel = assay: Capture assay for c-rel binding (streptavidin plates, Jurkat nuclear extract); conditions: library pools at 1 μM; native binding site at 100 nM
Procedure: Crude nuclear extracts were prepared as detailed by Franza, et al., Nature 1987, 330, 391, from Jurkat cells stimulated 4 hours with 1 μM PHA and 100 nM PMA to induce the expression of rel. The extract was then preabsorbed with 100 μl streptavidin agarose per ml for 10 minutes. This was followed with the addition of poly dI.dC as a non specific competitor at a concentration of 100 μg/ml of extract.
Phosphorothioate oligonucleotides were synthesized with the sequence […]-B (SEQ ID NO: 22) and […]-B (SEQ ID NO:23), where B=biotin, as described in Examples 3 and 9. The complementary oligonucleotides were then hybridized to create the double stranded NF-kB binding site, which was used as a positive control in the assay. A combinatorial phosphorothioate library was also synthesized with the general sequence TNNNXNNNT-B, where X=A, G, C, or U as described in Examples 3 and 6.
Each pool of the library was incubated in triplicate at a concentration of 1 μM with 100 μl of the extract for 20 minutes at room temperature. As a positive control, the native double stranded NF-kB binding site was incubated at 100 nM with the same amount of extract. Following the incubation each mixture was added to streptavidin coated microtiter plates (Elkay Lab Systems) and incubated 20 minutes. […] Color development was measured 2 hours later by reading absorbance at 405 nm on a Titertek Multiscan ELISA plate reader.

HIV-tat protein [1] = assay: Competition assay for HIV-tat binding against ΔTAR-B; conditions: RNA library pools at 1 μM, 10 μM and 100 μM; ΔTAR-B 100 nM
Description: A truncated version (residues 16-45; ΔTAR) of the TAR hairpin previously shown to bind tat was synthesized using 2'-O-methyl oligonucleotides as described in Example 4 and was biotin conjugated on the 3' end (ΔTAR-B) as described in Example 9. A combinatorial library was synthesized using RNA oligonucleotides with the sequence CCA NNX NNNNGCCUGGGAGCNNNNUGG, where X=A (SEQ ID NO:24), G (SEQ ID NO:25), C (SEQ ID NO:26), or U (SEQ ID NO:27) as described in Example 2 and 6.
The pools of the library at 0, 1, 10, or 100 μM were incubated with 100 μl of purified recombinant tat transcription factor (Repligen) at a concentration of 20 pg/μl for 15'. This and all other steps were carried out at room temperature. The competitor, ΔTAR-B, was then added at a concentration of 100 nM. Following a 20' incubation, the mixture was bound to streptavidin-coated microtiter plates as in Example 33. After the non-bound molecules were washed away with PBS, 100 μl of 1:500 tat antisera was added to each well for 2 hours. Protein A/G-alkaline phosphatase was bound to the tat antibodies followed by the addition of the PNPP substrate and quantitation of A 405 as detailed in Example 33.
In the competition mode library pools which bind the transcription factor prevent binding to the natural target (in this case the competitor ΔTAR) also present in the assay. […]

HIV-tat protein [2] = assay: Capture assay for HIV-tat binding; conditions: phosphorothioate library pools at 100 nM
Procedure: As a positive control, the native double stranded NF-kB binding site was incubated at 100 nM with the same amount of extract. Following the incubation each mixture was added to streptavidin coated microtiter plates (Elkay Lab Systems) and incubated 20 minutes. Unbound molecules were washed away with PBS. 10 μl of PBS plus 5% fetal calf serum was added to each well for 20 minutes at room temperature followed by aspiration and addition of 100 μl of 1:500 tat antisera in PBS plus 1% FCS for 2 hours at room temperature. The wells were then washed with PBS and 100 μl of 1:5000 Protein A/G-alkaline phosphatase (Pierce) added in PBS for 2 hours at room temperature. […] Color development was measured 2 hours later by reading absorbance at 405 nm on a Titertek Multiscan ELISA plate reader.
This and all other steps were carried out at room temperature. […] Protein A/G-alkaline phosphatase was bound to the tat antibodies followed by the addition of the PNPP substrate and quantitation of A 405 as detailed in Example 33.
Each pool of the phosphorothioate combinatorial library described in Example 33 was incubated at a concentration of 100 nM with tat protein as described in Example 34. Following incubation of the protein with the library pools, the complexes were captured on streptavidin plates and binding quantitated as in Example 33. […]

| Substance | Kd (gag-pol stem loop) [µM] | further results |
| --- | --- | --- |
| C2: RNA oligonucleotide (CCCUUCCCCUC; RNA, backbone not given here) [Set C2] | 1 |  |
| native NF-kB binding site: double stranded biotinylated phosphorothioate NF-kB binding site, SEQ ID NO: 22 and 23, positive control (chain 1 GGGGACTTTCCGCTGGGACTTTCTAG; chain 2 CTGGAAAGTCCCAGCGGAAGGTCCCC; all phosphorothioate, sugars by position and methylation of C not given here; biotinylated) |  | amount of c-rel bound, in words (c-rel): binds the greatest amount of rel |
| B2: RNA oligonucleotide (CCCUUCCCGUC; RNA, backbone not given here) [Set B2] | 10 |  |
| A2: RNA oligonucleotide (CCCUUCCCAUC; RNA, backbone not given here) [Set A2] | 10 |  |
| pool fixed at G: RNA library pool CCA NNX NNNNGCCUGGGAGCNNNNUGG, X=G (CCANNGNNNNGCCUGGGAGCNNNNUGG; RNA, backbone and the base at N not given here) |  | inhibition of tat binding to ΔTAR, in words (HIV-tat protein [1]): least effect; amount of tat bound, in words (HIV-tat protein [2]): clearly binds more tat than the others |
| D2: RNA oligonucleotide (CCCUUCCCUUC; RNA, backbone not given here) [Set D2] | 10 |  |
